Source: US20120108855A1, “INCREASED EXPRESSION OF TRANSHYDROGENASE GENES AND THEIR USE IN ETHANOL PRODUCTION” (UNIVERSITY OF FLORIDA RESEARCH FOUNDATION, INC., priority 2009, published 2012)
Where two headings read alike, the source gives them in different places.

What was measured:
E. coli LY180 [1] = type: cell-based, Escherichia coli; conditions: for furfural resistance (growth of LY180) with individual amino acid: amino acid 0.1 mM, 50 g liter^-1 xylose, 37 C, 48 hours; for furfural resistance (growth of LY180) with individual amino acid / relief of furfural inhibition of growth by alternative sulfur source: AM1 medium
Description: Furfural tolerance was examined by measuring growth in standing tubes with 4 mL total volume of AM1 and 50 g liter^−1 filter-sterilized xylose as described previously (48). Tubes were incubated at 37° C. and measured after 24 hours and 48 hours. Values reported are an average of 4 measurements.
All 20 amino acids were individually tested for their ability to improve the growth of LY180 in AM1 mineral salts medium (FIG. 9A). A concentration of 0.1 mM was selected roughly based on the cellular content of individual amino acids (50).
During growth in AM1 medium containing 1 g liter^−1 furfural, the effects of alternative sulfur sources (L-cysteine, D-cysteine, taurine, and sodium thiosulfate) that enter metabolism at different levels of reduction (FIG. 9D) was compared. Note that 4 NADPH molecules and two reductase enzymes (CysH and CysIJ) are required to fully reduce sulfate prior to assimilation into cysteine. […] D-cysteine cannot be incorporated directly and is first catabolized to H2S (49). Thiosulfate also serves as a source of reduced sulfur for incorporation by CysM (47). Taurine is catabolized to sulfite in the cytoplasm and must be reduced by sulfite reductase (CysIJ and 3 NADPH molecules) prior to assimilation into cysteine (54).

LY180 [2] = experiment: 5-HMF tolerance in tube cultures, LY180, with cysteine supplements; type: cell-based, Escherichia coli
Description: FIG. 17. Effect of L-cysteine on 5-HMF tolerance of LY180. Experiments were performed in tube cultures with AM1 medium containing 50 g l^−1 xylose and 5-HMF (24 h incubation). Cultures were supplemented with filter-sterilized L-cysteine as indicated. All data are plotted as a mean with standard deviation (n=4). A. 1.0 g l^−1 5-HMF; B. 2.0 g 1^−1 5-HMF.
Tolerance to HMF was tested using 13×100 mm closed tubes containing 4 ml AM1 and 5-HMF as indicated. When appropriate, antibiotics were included for plasmid maintenance. Tubes were inoculated to an initial density of 0.05 OD550nm. Growth was measured after incubation (60 rpm) for 48 h using a Spectronic 20D+ spectrophotometer (Thermo, Waltham, Mass.). To examine the effects of pntAB on furan tolerance, a multiwall plate containing 400 μl of AM1 (and 5-HMF or furfural) per well was inoculated as above. OD(420-580nm bandwidth) was measured for 72 h using a Bioscreen C growth analyzer (Oy Growth Curves, Helsinki, Finland).

EMFR9 = experiment: pH-controlled xylose fermentation with 5-HMF, EMFR9; type: cell-based, Escherichia coli
Description: (§1) Strains and plasmids used in this study have been previously described (70 and 23). These include LY180 (an ethanologenic derivative of E. coli), EMFR9 (furfural-tolerant derivative of LY180), LY180ΔyqhD, LY180ΔdkgA, LY180ΔyqhD ΔdkgA, pLOI4301 containing yqhD. Plasmids pLOI4303 containing dkgA (48), and pLOI4316 containing pntAB (70) were also used. Cultures were grown at 37° C. in AM1 minimal media (23) containing 20 g 1^−1 xylose (solid medium), 50 g l^−1 xylose (Bioscreen C growth analyzer and tube cultures), or 100 g 1^−1 (pH-controlled fermentations).
(§2) For fermentation experiments, seed cultures of LY180 and EMFR9 were grown overnight in small fermentors (37° C., 200 rpm) containing 350 ml of AM1 medium. Broth was maintained at pH 6.5 by the automatic addition of 2 N KOH. Upon reaching mid-log phase, experimental fermenters were inoculated to an initial cell density of 0.1 OD550nm. (33 mg dry cell weight 1^−1). Cell mass (OD550nm) and furan levels were monitored at 12-h intervals as described previously (20).

LY180 [3] = experiment: pH-controlled xylose fermentation with 5-HMF, LY180; type: cell-based, Escherichia coli; conditions: 1.0 g l^-1 5-HMF, 100 g l^-1 xylose
Description: as §1, §2

E. coli LY180 [4] = type: cell-based, Escherichia coli; conditions: amino acid 0.5 mM, 1 g liter^-1 furfural, AM1 medium, 48 hours
YqhD = YqhD (Escherichia coli, UniProt Q46856); conditions: cited from earlier work
Chain of YqhD (Q46856 whole entry): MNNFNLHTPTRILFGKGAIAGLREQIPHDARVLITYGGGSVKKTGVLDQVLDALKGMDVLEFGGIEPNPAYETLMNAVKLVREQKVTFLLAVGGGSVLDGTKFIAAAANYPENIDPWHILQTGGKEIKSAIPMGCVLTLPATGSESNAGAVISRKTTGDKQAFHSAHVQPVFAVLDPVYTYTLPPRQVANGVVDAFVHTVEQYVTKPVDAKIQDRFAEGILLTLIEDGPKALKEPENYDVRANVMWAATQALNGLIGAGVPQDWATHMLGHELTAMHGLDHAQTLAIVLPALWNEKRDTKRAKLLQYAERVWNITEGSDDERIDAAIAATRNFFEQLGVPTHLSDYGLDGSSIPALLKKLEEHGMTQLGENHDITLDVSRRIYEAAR

[5] = molecular target: sulfite reductase (CysIJ) (Escherichia coli, UniProt P38038); conditions: read-out: Km for NADPH; cited from earlier work
Chain of sulfite reductase (CysIJ) (P38038 2-599): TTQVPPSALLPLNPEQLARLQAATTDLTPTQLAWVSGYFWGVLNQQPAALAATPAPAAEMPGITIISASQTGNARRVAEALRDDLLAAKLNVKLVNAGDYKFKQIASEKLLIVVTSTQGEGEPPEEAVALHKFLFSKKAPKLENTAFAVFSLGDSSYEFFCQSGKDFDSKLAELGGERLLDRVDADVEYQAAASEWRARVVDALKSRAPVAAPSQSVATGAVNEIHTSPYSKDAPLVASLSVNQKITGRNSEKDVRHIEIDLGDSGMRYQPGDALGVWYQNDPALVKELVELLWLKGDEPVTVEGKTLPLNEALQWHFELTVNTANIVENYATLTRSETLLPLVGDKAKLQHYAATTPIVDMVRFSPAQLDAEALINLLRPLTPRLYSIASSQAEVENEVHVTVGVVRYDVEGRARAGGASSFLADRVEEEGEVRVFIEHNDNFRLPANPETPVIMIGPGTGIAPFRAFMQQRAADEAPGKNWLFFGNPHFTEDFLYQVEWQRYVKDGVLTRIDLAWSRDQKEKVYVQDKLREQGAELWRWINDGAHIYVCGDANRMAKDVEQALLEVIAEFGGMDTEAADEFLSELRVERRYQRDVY
Chain of sulfite reductase (CysIJ) (P17846 2-570, further chain): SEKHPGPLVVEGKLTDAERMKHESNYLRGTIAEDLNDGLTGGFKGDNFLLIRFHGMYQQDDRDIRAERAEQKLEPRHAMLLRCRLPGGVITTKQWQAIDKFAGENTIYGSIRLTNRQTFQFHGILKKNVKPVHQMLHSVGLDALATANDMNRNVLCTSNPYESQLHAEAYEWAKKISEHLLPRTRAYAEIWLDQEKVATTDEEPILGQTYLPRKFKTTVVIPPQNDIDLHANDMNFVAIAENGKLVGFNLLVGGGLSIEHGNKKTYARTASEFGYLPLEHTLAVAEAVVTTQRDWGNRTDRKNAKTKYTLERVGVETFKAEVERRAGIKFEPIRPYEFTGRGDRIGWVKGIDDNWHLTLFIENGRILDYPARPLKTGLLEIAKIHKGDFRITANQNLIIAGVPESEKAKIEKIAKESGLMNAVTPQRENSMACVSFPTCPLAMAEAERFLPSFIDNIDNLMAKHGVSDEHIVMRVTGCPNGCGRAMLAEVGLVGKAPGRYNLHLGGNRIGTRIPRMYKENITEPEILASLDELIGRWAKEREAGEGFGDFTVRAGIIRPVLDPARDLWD

DkgA = DkgA (Escherichia coli, UniProt Q46857); conditions: read-out: apparent Km for NADPH; cited from earlier work
Chain of DkgA (Q46857 whole entry): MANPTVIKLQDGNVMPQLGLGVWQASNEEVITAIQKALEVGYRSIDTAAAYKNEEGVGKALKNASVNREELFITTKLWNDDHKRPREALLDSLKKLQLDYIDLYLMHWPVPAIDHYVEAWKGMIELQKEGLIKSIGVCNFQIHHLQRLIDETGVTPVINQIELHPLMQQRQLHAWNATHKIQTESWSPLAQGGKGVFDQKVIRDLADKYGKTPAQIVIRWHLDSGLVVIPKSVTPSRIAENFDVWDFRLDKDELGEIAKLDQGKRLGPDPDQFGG

E. coli LY180 [6] = experiment: Microarray analysis of LY180 after furfural addition; type: cell-based, Escherichia coli
Description: Cultures were grown in small fermenters to a density of 670 mg dcw liter^−1. An initial sample was removed that served as a control. Furfural was immediately added from a 50 g liter^−1 aqueous stock (0.5 g liter^−1 final concentration) and incubation continued for 15 minutes prior to a second sampling. Samples were rapidly cooled in an ethanol-dry ice bath, harvested by centrifugation at 4° C., resuspended in Qiagen RNA Later and stored at −80° C. RNA was extracted using a Qiagen RNeasy Mini Kit, treated with DNase I and purified by phenol/chloroform extraction and ethanol precipitation. RNA was sent to NimbleGen (Madison, Wis.) for microarray comparisons using probes designed for E. coli K12. Each sample consisted of pooled material from four fermenters. The complete experiment was performed twice and the data was averaged (8 fermentors). Data was analyzed using ArrayStar (DNA Star, Madison, Wis.) and SimPheny software (Genomatica Inc., San Diego, Calif.). Expression ratios are presented as the average of the two pooled datasets.
Message levels were compared in actively growing cells before and 15 min after the addition of 0.5 g liter^−1 furfural. A water control was also included for comparison. […]

[7] = Stability of furfural in mineral salts medium; type: physicochemical; conditions: 48 incubation at 37 C
Description: Protective concentrations of cysteine (0.05 mM) were 200-fold lower than that of 1 g liter^−1 furfural (10 mM).

LY180 strains = experiment: Growth of LY180 strains carrying plasmids in the presence of furfural; type: cell-based, Escherichia coli; conditions: 0.10% furfural, after 48 hours
Description: LY 180 strains were grown on LB glucose ampicillin plates overnight and each were used to inoculate a tube of AM1 xylose to 3-4 OD. This culture was immediately used to inoculate […] capped tubes containing 4 mL AM1 5% xylose, ampicillin, and an indicated concentration of furfural to 0.05 initial OD. Cultures were grown in a water bath at 37 C and OD 500 nm readings were taken after 24 and 48 hours.
PntAB is a proton translocating transhydrogenase that is not known to function during fermentative growth but is potentially capable of increasing the pool of NADPH (52). In examples 2 and 3, the E. coli […] transhydrogenase PntAB was cloned into pTrc99a and confirmed by sequencing. PntAB with native ribosomal binding site and rho dependent terminator was polymerase chain reaction (PCR) amplified from E. coli strain LY180 genomic DNA using primers with HindIII digestible ends. The PCR product and pTrc099a were HindIII digested, purified using a Qiagen Qiaprep Spin Miniprep Kit, and ligated together using T4 Quick DNA ligase. After transforming the resulting vector into TOP10F′, the plasmid was extracted and used to transform LY180. Orientation was verified by PCR analysis. The empty vector served as a control. Inducer was added prior to inoculation. The growth of LY180 strains carrying plasmids having increasing expression of pntA and pntB genes was compared (FIG. 2A-2B). […]

N[C@@H](CO)C(=O)O [serine]
furfural resistance (growth of LY180) with individual amino acid (E. coli LY180 [1]; 1 g liter^-1 furfural): improved furfural resistance

O=Cc1ccc(CO)o1 [5-HMF, 5-hydroxymethyl furfural]
growth of LY180 (LY180 [2]; 1 g l^-1 5-HMF, tube cultures, 24 h): partially inhibited | effect on cell yield or ethanol yield of EMFR9 (EMFR9; 1.0 g l^-1 5-HMF, fermentation): no detrimental effect | ethanol production and growth of EMFR9 (EMFR9; 2.5 g 5-HMF l^-1, fermentation): slowed | time to completion of ethanol production and growth of EMFR9 (EMFR9; 2.5 g 5-HMF l^-1, fermentation): 96 h | growth of LY180 (LY180 [3]): completely inhibited

N=C(N)NCCC[C@H](N)C(=O)O [arginine]
furfural resistance (growth of LY180) with individual amino acid (E. coli LY180 [1]; 1 g liter^-1 furfural): improved furfural resistance

O=S(O)(O)=S [thiosulfate, sodium thiosulfate]
relief of furfural inhibition of growth by alternative sulfur source (E. coli LY180 [1]; 1 g liter^-1 furfural): effective

OCC(O)CO [glycerol]
effect on furfural tolerance (E. coli LY180 [1]; glycerol 1.0 to 20 g liter^-1, data not included): no effect

N[C@@H](Cc1c[nH]cn1)C(=O)O [histidine]
furfural resistance (growth of LY180) with individual amino acid (E. coli LY180 [1]; 1 g liter^-1 furfural): improved furfural resistance

NCCS(=O)(=O)O [taurine]
relief of furfural inhibition of growth by alternative sulfur source (E. coli LY180 [1]; 1 g liter^-1 furfural): not effective

N[C@H](CS)C(=O)O [D-cysteine]
relief of furfural inhibition of growth by alternative sulfur source (E. coli LY180 [1]; 1 g liter^-1 furfural): effective

N[C@@H](CS)C(=O)O [cysteine, L-cysteine]
furfural resistance (growth of LY180) with individual amino acid (E. coli LY180 [4]): most effective | protective concentration against furfural (E. coli LY180 [1]; 1 g liter^-1 furfural (10 mM)): 0.05 mM | relief of furfural inhibition of growth by alternative sulfur source (E. coli LY180 [1]; 1 g liter^-1 furfural): effective | furfural resistance (growth of LY180) with individual amino acid (E. coli LY180 [1]; 1 g liter^-1 furfural): improved furfural resistance | improvement in furfural resistance (E. coli LY180 [1]; cysteine 0.01 mM): No measurable improvement | density to which LY180 grew (E. coli LY180 [1]; cysteine 0.05 mM, 1 g liter^-1 furfural): 0.8 g/L | growth of LY180 with cysteine supplement (LY180 [2]; 100 uM cysteine, 1 g l^-1 5-HMF): completely restored | growth of LY180 with cysteine supplement (LY180 [2]; 100 uM or 1000 uM cysteine, 2.5 g l^-1 5-HMF): not restored | effect of cysteine supplements on the MIC for 5-HMF (LY180 [2]; LY180): did not increase

NC(=O)C1=CN([C@@H]2O[C@H](COP(=O)(O)OP(=O)(O)OC[C@H]3O[C@@H](n4cnc5c(N)ncnc54)[C@H](OP(=O)(O)O)[C@@H]3O)[C@@H](O)[C@H]2O)C=CC1 [NADPH]
Km (YqhD; read-out: Km for NADPH): 8 µM | Km (YqhD; read-out: apparent Km for NADPH): 8 µM | Km [5]: 80 µM | Km (DkgA): 23 µM

O=Cc1ccco1 [furfural]
genes with expression altered two-fold or greater (E. coli LY180 [6]; 0.5 g liter^-1 furfural, 15 min): approximately 400 genes | up-regulation of YqhD and DkgA (mRNA) (E. coli LY180 [6]; addition of furfural, parent LY180): over 5 fold | furfural in mineral salts medium, by characteristic spectrum [7]: remained unchanged | growth of LY180 strains other than pTrc99a-pntAB forward (LY180 strains): substantially stopped growing

CSCC[C@H](N)C(=O)O [methionine]
furfural resistance (growth of LY180) with individual amino acid (E. coli LY180 [1]; 1 g liter^-1 furfural): improved furfural resistance
